In patent US10538516B2, “Oxadiazole derivative and pharmaceutical containing same” (National Center for Geriatrics and Gerontology, priority 2015, dated 2020):
Read-outs that look alike come from different tables or passages of the source.

Biological target: T1, GAβ-dependent amyloid fibril formation (Human Aβ1-40 + GM1-containing liposome) (Homo sapiens, UniProt P05067)
T1 construct: Human Aβ1-40 (cat. #4307-v, prepared by Peptide Institute); purchased Peptide Institute 4307-v
Assay: Thioflavin T (ThT) assay of GAβ-dependent amyloid fibril formation (Aβ1-40 with GM1-containing liposome)
Format: biochemical
Experimental: <3. Evaluation of the Compounds Based on the Inhibitory Activity Against Amyloid Fibril Formation in Thioflabin T (ThT) Assay>
Inhibitory activity against GAβ-dependent amyloid fibril formation of the above compounds 1 to 133 and 142 to 267 were evaluated in ThT assay.
(1) Preparation of Aβ Solution
Human Aβ1-40 (cat. #4307-v, prepared by Peptide Institute) was dissolved in a 0.02% ammonia solution (400 μM), and the mixture was treated in an ultracentrifuge (S110AT rotor, Hitachi) at 100,000 rpm for 3 hours. Approximately two-thirds of the upper layer of the supernatant was recovered and protein concentration was measured. The Aβ solution was aliquoted and stored at −80° C. until use, was melted immediately before use, and was diluted to 75 μM using phosphate buffer (PBS: cat. #10010, manufactured by Life Technologies).
(2) Preparation of GM1-Containing Liposome
Using a mixed solution of chloroform/methanol (1:1) as a solvent, a mixed solution of 100 mM each of cholesterol and sphingomyelin (both manufactured by Sigma-Aldrich) was prepared. To this mixed solution, GM 1 (cat. #1061, manufactured by Matreya Co.) was dissolved to make a solution of 50 mM concentration. This lipid mixed solution was aliquoted into glass test tubes and stored at −20° C. until use, was melted before use, was mixed with chloroform/methanol mixture (1:1) and mixed, and then the solvent was removed by applying nitrogen gas to the suspension. The dried lipid mixture was resuspended in PBS to be a GM1 concentration of 2.5 mM, and frozen and thawed 5 times with liquid nitrogen. The lipid suspension was centrifuged at 15,000 rpm for 10 minutes and the precipitate was resuspended in PBS to be a GM1 concentration of 2.5 mM. Using an ultrasonic crusher (XL-2000, MISONIX Co., Ltd.) equipped with a microchip, ultrasonic treatment was repeated on ice for 10 seconds until the suspension became transparent, and GM1-containing liposome was prepared. Immediately prior to use, PBS was added and diluted to a GM 1 concentration of 75 μM.
(3) Preparation of Compound Solution
Compounds 1 to 133 and 142 to 267 were prepared as 10 mM and 2 mM solution in DMSO, respectively. And each solution was diluted to 75 μM or 15 μM with PBS immediately prior to use.
(4) GAβ-Dependent Amyloid Fibril Formation
To a 96-well microplate, 5 μl each of the 75 μM Aβ solution prepared above (1), the compound solution prepared in (3) or 0.75% DMSO was mixed and incubated at room temperature for 10 minutes. Then, 5 μl each of 750 μM GM1-containing liposome prepared in (2) was added to each well and incubated at 37° C. for 18 hours.
ThT (manufactured by Sigma-Aldrich) was adjusted to 5 μM using 50 mM glycine-NaOH buffer (pH 8.5). Immediately before measurement, 10 μl from each well of (4) was transferred to a 96-well black plate. 50 μl of 5 μM ThT solution was added from each injector to each well using a multi-plate reader (ARVO-HTS, manufactured by Perkin Elmer), and then the optimal fluorescence of ThT bound to amyloid fiber (excitation wavelength 430 nm, fluorescence wavelength 490 nm) was measured.
The fluorescence intensity of ThT indicates the degree of amyloid fibrils formation. By calculating the ratio of the ThT fluorescence intensity between addition of the compound and without addition of the compound, the inhibition rate against amyloid fibril formation by the compound was calculated.

[1] = inhibition rate against amyloid fibril formation, final concentration of the compound 25 μM, read-out: Inhibitory activity ABC evaluation
[2] = read-out: ThT Inhibitory activity (% inhibition)
[3] = @25 μM, read-out: ThT Inhibitory activity (% inhibition)

T1 sequence (P05067 672-711 limits assumed): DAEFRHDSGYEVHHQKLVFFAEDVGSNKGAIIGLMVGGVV

| inhibition at 25 µM [1] | Structure (SMILES) | further results |
| --- | --- | --- |
| 40 to 80% | O=C1CC(c2nc(-c3ccc(OC(F)F)cc3)no2)CN1c1ccc(Cl)cn1 (stereo not shown) [Compound 62, 1-(5-chloropyridin-2-yl)-4-{3-[4-(difluoromethoxy)phenyl]-1,2,4-oxadiazol-5-yl}pyrrolidin-2-one] |  |
| > 80% | O=C(N[C@@H](CO)c1nc(-c2ccc(OC(F)(F)F)cc2)no1)c1cccc(Cl)c1 [Compound 63, (S)-3-chloro-N-(2-hydroxy-1-[3-{4-(trifluoro-methoxy)phenyl}-1,2,4-oxadiazol-5-yl]ethyl) benzamide] | inhibition at 5 µM [2]: 53%; inhibition at 25 µM [3]: 99% |
| 40 to 80% | O=C1CC(c2nc(-c3ccc(OC(F)(F)F)cc3)no2)CN1Cc1ccc(Cl)cc1 (stereo not shown) [Compound 64, 1-(4-chlorobenzyl)-4-{3-[4-(trifluoromethoxy)phenyl]-1,2,4-oxadiazol-5-yl}pyrrolidin-2-one] |  |
| 40 to 80% | CS(=O)(=O)Nc1ccc(-c2noc(C3CC(=O)N(c4ccc(Cl)cc4)C3)n2)cc1 (stereo not shown) [Compound 65, N-(4-[5-{1-(4-chlorophenyl)-5-oxopyrrolidin-3-yl}-1,2,4-oxadiazol-3-yl]phenyl) methane-sulfonamide] |  |
| 40 to 80% | O=C1CC(c2nc(-c3cccc(OC(F)F)c3)no2)CN1c1ccc(Cl)cc1 (stereo not shown) [Compound 66, 1-(4-chlorophenyl)-4-[3-{3-(difluoro-methoxy)phenyl}-1,2,4-oxadiazol-5-yl]pyrrolidin-2-one] |  |
| 40 to 80% | O=C1CC(c2nc(-c3ccccc3OC(F)(F)F)no2)CN1c1ccc(Cl)cc1 (stereo not shown) [Compound 67, 1-(4-chloro-phenyl)-4-[3-{2-(trifluoro-methoxy)phenyl}-1,2,4-oxadiazol-5-yl]pyrrolidin-2-one] |  |
| 40 to 80% | O=C(c1ccc(Cl)cc1)N1CC(c2nc(-c3ccc(OC(F)(F)F)cc3)no2)C1 [Compound 68, (4-chloro-phenyl)(3-[3-{4-(trifluoro-methoxy)phenyl}-1,2,4-oxadiazol-5-yl]azetidin-1-yl)methanone] |  |
| > 80% | O=C(N[C@@H](CO)c1nc(-c2ccc(OC(F)(F)F)cc2)no1)c1ccc(F)cc1 [Compound 69, (S)-4-fluoro-N-(2-hydroxy-1-[3-{4-(trifluoro-methoxy)phenyl}-1,2,4-oxadiazol-5-yl]ethyl) benzamide] | inhibition at 25 µM [3]: 87% |
| < 40% | COc1cccc2c(CC(=O)NCCc3nc(-c4c[nH]c5ccccc45)no3)c[nH]c12 [Compound 70, N-[2-{3-(1H-indol-3-yl)-1,2,4-oxadiazol-5-yl}ethyl]-2-(7-methoxy-1H-indol-3-yl) acetamide] |  |
| 40 to 80% | O=C(NCCc1nc(-c2c[nH]c3ccccc23)no1)c1ccc(Cl)cc1 [Compound 71, N-[2-{3-(1H-indol-3-yl)-1,2,4-oxadiazol-5-yl}ethyl]-4-chloro-benzamide] |  |
| > 80% | O=C1CC(CO)(c2nc(-c3ccc(O)cc3)no2)CN1c1ccc(Cl)cc1 (stereo not shown) [Compound 72, 1-(4-chloro-phenyl)-4-(hydroxy-methyl)-4-{3-(4-hydroxyphenyl)-1,2,4-oxadiazol-5-yl} pyrrolidin-2-one] | inhibition at 5 µM [2]: 47%; inhibition at 25 µM [3]: 81% |
| > 80% | O=C1CC(CO)(c2nc(-c3ccc4c(c3)OC(F)(F)O4)no2)CN1c1ccc(Cl)cc1 (stereo not shown) [Compound 73, 1-(4-chlorophenyl)-4-[3-(2,2-difluorobenzo[d][1,3]dioxol-5-yl)-1,2,4-oxadiazol-5-yl]-4-(hydroxymethyl)pyrrolidin-2-one] |  |
| 40 to 80% | O=C1CC(c2nc(-c3ccc(O)c(F)c3)no2)CN1c1ccc(Cl)cc1 (stereo not shown) [Compound 74, 1-(4-chloro-phenyl)-4-{3-(3-fluoro-4-hydroxyphenyl)-1,2,4-oxadiazol-5-yl}pyrrolidin-2-one] |  |
| 40 to 80% | O=C(N[C@@H](CCO)c1nc(-c2ccc(OC(F)(F)F)cc2)no1)c1ccc(Cl)cc1 [Compound 75, (S)-4-chloro-N-(3-hydroxy-1-[3-{4-(trifluoro-methoxy)phenyl}-1,2,4-oxadiazol-5-yl]propyl) benzamide] |  |
| 40 to 80% | O=C(N[C@@H](CO)c1nc(-c2ccc(OC(F)(F)F)cc2)no1)c1c[nH]c2cc(Cl)ccc12 [Compound 76, (S)-6-chloro-N-(2-hydroxy-1-[3-{4-(trifluoro-methoxy)phenyl}-1,2,4-oxadiazol-5-yl}ethyl)-1H-indole-3-carboxamide] |  |
| 40 to 80% | O[C@@H]1C[C@@H](c2nc(-c3ccc(OC(F)(F)F)cc3)no2)N(Cc2ccc(Cl)cc2)C1 [Compound 77, (3R,5S)-1-(4-chlorobenzyl)-5-[3-{4-(trifluoro-methoxy)phenyl}-1,2,4-oxadiazol-5-yl]pyrrolidin-3-ol] |  |
| > 80% | O=C(NC(CO)c1nc(-c2ccc(O)cc2)no1)c1ccc(Cl)cc1 (stereo not shown) [Compound 78, 4-chloro-N-{2-hydroxy-1-[3-(4-hydroxyphenyl)-1,2,4-oxadiazol-5-yl]ethyl}benzamide] | inhibition at 5 µM [2]: 52%; inhibition at 25 µM [3]: 89% |
| < 40% | N#Cc1ccc(N2CC(c3nc(-c4ccc(O)cc4)no3)CC2=O)cc1 (stereo not shown) [Compound 79, 4-[4-{3-(4-hydroxyphenyl)-1,2,4-oxadiazol-5-yl}-2-oxopyrrolidin-1-yl]benzonitrile] |  |
| > 80% | C[C@@H](O)[C@H](NC(=O)c1ccc(Cl)cc1)c1nc(-c2ccc(OC(F)(F)F)cc2)no1 [Compound 80, 4-chloro-N-((1S,2R)-2-hydroxy-1-[3-{4-(trifluoro-methoxy)phenyl}-1,2,4-oxadiazol-5-yl]propyl) benzamide] | inhibition at 25 µM [3]: 80% |
| 40 to 80% | O=C(O)C[C@H](NC(=O)c1ccc(Cl)cc1)c1nc(-c2ccc(OC(F)(F)F)cc2)no1 [Compound 81, (S)-3-(4-chlorobenzamide)-3-{3-[4-(trifluoromethoxy)phenyl]-1,2,4-oxadiazol-5-yl}propanoic acid] |  |
|  | O=C(c1ccc(Cl)cc1)N1C[C@H](O)C[C@H]1c1nc(-c2ccc(OC(F)(F)F)cc2)no1 [Compound 82, (4-chlorophenyl) ((2S,4R)-4-hydroxy-2-[3-{4-(trifluoro-methoxy)phenyl}-1,2,4-oxadiazol-5-yl]pyrrolidin-1-yl)methanone] | Inhibitory activity ABC evaluation (inhibition rate against amyloid fibril formation, final concentration of the compound 25 μM, 25 µM): C (the inhibition rate of less than 40% was evaluated as C) |
| > 80% | O=C(N[C@H](CO)c1nc(-c2ccc(OC(F)(F)F)cc2)no1)c1ccc(Cl)cc1 [Compound 83, (R)-4-chloro-N-(2-hydroxy-1-[3-{4-(trifluoromethoxy)phenyl}-1,2,4-oxadiazol-5-yl]ethyl)benzamide] |  |
| 40 to 80% | O=C1CC[C@@H](c2nc(-c3ccc(OC(F)(F)F)cc3)no2)N1C(=O)c1ccc(Cl)cc1 [Compound 84, (S)-1-(4-chloro-benzoyl)-5-[3-{4-(trifluoromethoxy)phenyl}-1,2,4-oxadiazol-5-yl]pyrrolidin-2-one] |  |
| < 40% | NC(=O)C[C@H](NC(=O)c1ccc(Cl)cc1)c1nc(-c2ccc(OC(F)(F)F)cc2)no1 [Compound 86, (S)-N-(3-amino-3-oxo-1-{3-[4-(trifluoromethoxy)phenyl]-1,2,4-oxadiazol-5-yl}propyl)-4-chlorobenzamide] |  |
| 40 to 80% | CN(C)C(=O)C[C@H](NC(=O)c1ccc(Cl)cc1)c1nc(-c2ccc(OC(F)(F)F)cc2)no1 [Compound 87, (S)-4-chloro-N-(3-(dimethylamino)-3-oxo-1-[3-{4-(trifluoromethoxy)phenyl}-1,2,4-oxadiazol-5-yl]propyl) benzamide] |  |
| < 40% | CNC(=O)C[C@H](NC(=O)c1ccc(Cl)cc1)c1nc(-c2ccc(OC(F)(F)F)cc2)no1 [Compound 88, (S)-4-chloro-N-(3-(methylamino)-3-oxo-1-[3-{4-(trifluoromethoxy)phenyl}-1,2,4-oxadiazol-5-yl]propyl) benzamide] |  |
